Experimental data from paper PMC7377239, “Cardiovascular Effects of Polychlorinated Biphenyls and Their Major Metabolites” (Environmental Health Perspectives, 2020).
Read-outs that look alike come from different tables or passages of the source.

What was measured:
[1] = tested on: iCell cardiomyocytes (human iPSC-derived cardiomyocytes); experiment: High-content imaging of cytotoxicity and mitochondrial integrity in iPSC-CMs; format: cell-based; conditions: for minimal effective concentration: Homo sapiens, Cardiomyocyte, cardiomyocytes (cm)
Summary of the method: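 This assay measured cytotoxicity and mitochondrial integrity in iPSC cardiomyocytes held in 40μL maintenance medium. After compound exposure, a 2× staining solution with Hoechst 33342 (4μg/mL) and MitoTracker™ Orange (0.4μM) was applied for 15 min at 37°C. Cells were washed, fixed with 3.7% formaldehyde, imaged on DAPI and Cy3 channels, and scored in MetaXpress®.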

HUVECs = experiment: High-content imaging cytotoxicity in HUVECs, 24 h; format: cell-based, human; conditions: Homo sapiens, HUVEC, 24 h, HUVEC, 24 hr
Summary of the method: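 Confluent HUVEC monolayers, passages 1–5, received test chemicals for 24 h. Cytotoxicity was scored from triple-stain high-content images, with PODs defined by a one-SD deviation from 0.5% DMSO vehicle controls.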

[2] = 1.5 h, cam, 90 min, read-out: POD cm.cam.90min
[3] = 1.5 h, mii, 90 min, read-out: POD cm.mii.90min
[4] = 1.5 h, mito, 90 min, read-out: POD cm.mito.90min
[5] = 1.5 h, tc, 90 min, read-out: POD cm.tc.90min
[6] = 24 h, cam, 24 hrs, read-out: POD cm.cam.24hrs
[7] = 24 h, mii, 24 hrs, read-out: POD cm.mii.24hrs
[8] = 24 h, mito, 24 hrs, read-out: POD cm.mito.24hrs
[9] = 24 h, tc, 24 hrs, read-out: POD cm.tc.24hrs
[10] = cyto, read-out: POD huvec.cyto.24hr
[11] = mito, read-out: POD huvec.mito.24hr
[12] = mitoint, read-out: POD huvec.mitoint.24hr
[13] = nma, read-out: POD huvec.nma.24hr
[14] = tc, read-out: POD huvec.tc.24hr

SMILES	minimal effective concentration [1, 2] [µM]	minimal effective concentration [1, 3] [µM]	minimal effective concentration [1, 4] [µM]	minimal effective concentration [1, 5] [µM]	minimal effective concentration [1, 6] [µM]	minimal effective concentration [1, 7] [µM]	minimal effective concentration [1, 8] [µM]	minimal effective concentration [1, 9] [µM]	minimal effective concentration (HUVECs; [10]) [µM]	minimal effective concentration (HUVECs; [11]) [µM]	minimal effective concentration (HUVECs; [12]) [µM]	minimal effective concentration (HUVECs; [13]) [µM]	minimal effective concentration (HUVECs; [14]) [µM]	effect on cell viability in iPSC-CMs ([1]; iPSC-CMs, 0.01-100 μM, 90 min and 24 h)
Clc1ccc(-c2ccccc2)cc1 [PCB 3, 4-chlorobiphenyl]	24.9	6.86	21.2	20	7.4	10.9	6.67	6.97	100	100	100	100	100	
Clc1cccc(-c2cccc(Cl)c2)c1 [PCB 11, 3,3′-Dichlorobiphenyl]	18.6	12.4	14.2	16.7	35.2	9.6	33.1	35.1	11.2	9.68	7.62	9.3	11.2	
Clc1ccc(Cl)c(-c2cc(Cl)ccc2Cl)c1 [PCB 52, 2,2′,5,5′-tetrachlorobiphenyl]	36	10.4	39.2	38.9	7.5	34.4	7.32	8.11	0.67	0.57	6.01	4.97	0.67	
Clc1ccc(Cl)c(-c2c(Cl)ccc(Cl)c2Cl)c1 [PCB 95, 2,2′,3,5′,6-pentachlorobiphenyl]	36.6	100	39.6	38.7	8.98	22.2	8.96	8.75	0.01	0.022	7.41	1.93	0.01	
Clc1ccc(-c2cc(Cl)c(Cl)c(Cl)c2)cc1Cl [PCB 126, 3,3′,4,4′,5-pentachlorobiphenyl]	100	100	100	100	7.03	100	7.54	6.48	5.33	100	100	100	5.33	little effect on cell viability
Clc1cc(Cl)c(-c2cc(Cl)c(Cl)cc2Cl)cc1Cl [PCB 153, 2,2′,4,4′,5,5′-hexachlorobiphenyl]	20.6	100	19.8	23.2	11.6	39.9	10.5	11.1	0.0171	0.75	0.83	1.01	0.0171	
